Laboratory results as given in patent US10001472B2, “3D determination of cell chirality” (Rensselaer Polytechnic Institute, priority 2015, dated 2018).

System: Madin-Darby canine kidney (MDCK) epithelial cells
Assay: 3D cell chirality (rotation direction) of cells in bilayer MATRIGEL substrate
Assay type: cell-based
Conditions: MDCK cells in 3D substrate, FIG. 5
Procedure: The cell line used was Madin-Darby canine kidney (MDCK) epithelial cells. The 3D substrate culture system included a base layer was composed of 100% MATRIGEL®. The base layer was seeded with a single cell suspension of MDCK epithelial cells. After cell attachments to the base layer, a top layer was generated by overlaying culture with 2% MATRIGEL®.
Self-organization of the epithelial cells during microtissue development was observed using phase contrast imaging and confocal microscopy. The cells were stained with DAPI (4′,6-diamidino-2-phenylindole), Phalloidin, and ZO-1 antibody.
Time-lapse images were collected for at least 2 hours at intervals of 1 minute over a period of 6 days. Videos were processed in ImageJ and analyzed for quantification of collective rotational direction. Direction of rotation was categorized into clockwise (CW), counterclockwise (CCW), complex rotation, and no rotation. Phase-contrast images of microtissue development from a single cell embedded within the multilayer MATRIGEL® system over time.
Latrunculin A was used to study the role of actin function in left right asymmetry. Latrunculin A is a drug which inhibits actin polymerization. […] These studies are consistent with 2D studies.

## C/C1=C/C(=O)O[C@@H]2C[C@@H](CC[C@H](C)/C=C\C=C\CC1)O[C@@](O)([C@@H]1CSC(=O)N1)C2 [Latrunculin A]
Base layer 100% MATRIGEL, top layer 2% MATRIGEL
  effect on cell chirality (rotation direction): reversal of chirality
Higher concentrations of Latrunculin A
  concentration dependence of chirality effect: increasing clockwise chirality
